According to US7960397B2, “6,9-disubstituted purine derivatives and their use as cosmetics and cosmetic compositions” (Institute of Experimental Botany, Academy of Sciences of …, priority 2007, dated 2011):

Assays:
mouse fibroblasts NIH3T3 = experiment: In vitro cytotoxicity, Calcein AM assay; settings: Mus musculus, NIH3T3, 72 h, read-out: GI50 NIH-3T3
Experimental: (§1) Because only metabolically active cells cleave Calcein AM, these assays detect viable cells exclusively. The quantity of reduced Calcein AM corresponds to the number of vital cells in the culture.
(§2) The cells were maintained in Nunc/Corning 80 cm^2 plastic tissue culture flasks and cultured in cell culture medium (DMEM with 5 g/l glucose, 2 mM glutamine, 100 U/ml penicillin, 100 mg/ml streptomycin, 10% fetal calf serum and sodium bicarbonate).
(§3) The cell suspensions that were prepared and diluted according to the particular cell type and the expected target cell density (2,500-30,000 cells per well based on cell growth characteristics) were added by pipette (80 ml) into 96-well microtiter plates. Inoculates were allowed a pre-incubation period of 24 hours at 37° C. and 5% CO2 for stabilization. Four-fold dilutions of the intended test concentration were added at time zero in 20 ml aliquots to the microtiter plate wells. Usually, the compound tested was evaluated at six 4-fold dilutions. […] All drug concentrations were examined in duplicate. Incubations of cells with the tested compounds lasted for 72 hours at 37° C., in a 5% CO2 atmosphere and 100% humidity. At the end of the incubation period, the cells were assayed by using Calcein AM. Ten microliters of the stock solution were pipetted into each well and incubated for 1 hour. Fluorescence (FD) was measured with the Labsystem FIA Reader Fluoroscan Ascent (UK).

[1] = system: cytokinin-dependent tobacco callus Nicotiana tabacum L. cv. Wisconsin 38; experiment: Cytokinin activity in tobacco callus bioassay; type: cell-based
[2] = system: promyelocytic HL-60 leukemia; experiment: In vitro cytotoxicity, Calcein AM assay; settings: Homo sapiens, HL-60, 72 h, read-out: GI50 HL60
Experimental: as §1, §2, §3

[3] = system: human diploid fibroblasts (HCA cells, HCA20, HCA40, HCA60); experiment: Senescent cells (β-galactosidase staining) in culture of human fibroblasts; type: cell-based
Outline: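 Fibroblasts taken at passages 20, 40 and 60 were washed and fixed for 5 min at room temperature in 2% formaldehyde/0.2% glutaraldehyde in PBS. After PBS washes, cells were incubated at 37 °C for β-galactosidase staining.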

[4] = system: Amaranthus caudatus cotyledon/hypocotyl explants; experiment: Amaranthus bioassay (betacyanin content); set-up: species or system Amaranthus caudatus var. atropurpurea
Outline: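 Amaranthus caudatus explants (cotyledons plus hypocotyl) from 72 h dark-grown seedlings were incubated in darkness on medium with 10 mmol Na2HPO4–KH2PO4 pH 6.8, 5 mmol tyrosine and test compound; stock was 10^−3 M in DMSO/water. Betacyanin was measured as A537−A620 and activity expressed relative to 10^−5 M BAP (100%).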

β-adrenergic receptors = experiment: Isoproterenol-induced cAMP synthesis in rat C6 glioma; type: cell-based; settings: cellular cAMP, simultaneous addition with isoproterenol, 30 min
Experimental: Anti-inflammatory activity. The compounds of formula 1 having anti-inflammatory activities can be used as cosmetics for treating inflammation skin disorders as atopic dermatitis, lichen planus, hyperpigmentation and Herpes simplex lesions. From this reason, rat C6 glioma (ATCC No. CCL107) was cultivated as a monolayer in a serum-free chemically defined medium containing Ham's F10-minimal essential medium (1:1 v/v), 2 mM L-glutamine, 1% (v/v) minimal essential medium vitamins (100×), 1% (v/v) minimal essential medium nonessential amino acids (100×), 100U/ml penicillin, […] streptomycin and 30 nM sodium selenite. Incubation was performed at 37° C. in a humidified atmosphere. The assays were performed in the logarithmic growth phase at a density of 2.5×10^5 cells/cm^2. Intracellular cAMP synthesis was induced by addition of […] (−)isoproterenol. After 30 min incubation at 37° C. the medium was removed and the cellular amount of cAMP was determined using the cAMP-enzyme immunoassay Amersham kit. The I50 value was determined from a dose-response curve in duplicate. The effect of the novel 6,9-disubstituted purines was measured after simultaneous addition with isoproterenol.
As P2Y1-like and A2 purinergic receptors, negatively and positively coupled to adenylate cyclase, respectively, are present in rat C6 glioma, it remains to be determined whether the modulation of the synthesis of cAMP is due to the inhibition of the activation of β-adrenergic receptors by isoproterenol, or due to the activation of purinergic receptors.

human osteosarcoma HOS = experiment: In vitro cytotoxicity, Calcein AM assay; settings: Homo sapiens, 72 h, read-out: GI50 HOS
Experimental: as §1, §2, §3

[5] = system: breast carcinoma cell line MCF-7; experiment: In vitro cytotoxicity, Calcein AM assay; settings: Homo sapiens, MCF7, 72 h, read-out: GI50 MCF7
Experimental: as §1, §2, §3

[6] = system: Human T-lymphoblastic leukemia cell line CEM; experiment: In vitro cytotoxicity, Calcein AM assay; settings: Homo sapiens, 72 h, read-out: GI50 CEM
Experimental: as §1, §2, §3

excised wheat leaf tips = experiment: Antisenescence test, retention of chlorophyll in excised wheat leaf tips; set-up: species or system Triticum aestivum cv. Hereward
Outline: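 Winter wheat seedlings (Triticum aestivum cv. Hereward) were raised on vermiculite with Knop's solution at 25° C. for 7 days. Tips of the first leaf, 35 mm long (five tips, 100 mg combined), stood in […] of test solution in microtiter wells. After 96 h in the dark at 25° C., chlorophyll was extracted in 80% ethanol at 80° C. and read at 665 nm. Activity is relative to 10^−4 M BAP (100%).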

## Oc1ccc(CNc2ncnc3c2ncn3C2CCCCO2)cc1 (stereo not drawn) [6-(4-hydroxybenzylamino)-9-(tetrahydropyran-2-yl)purine]
Mouse fibroblasts NIH3T3
  GI50: > 167 µM
[1]; growth of tobacco callus, four weeks of cultivation, tested 10^−8 M to 10^−4 M
  concentration with highest activity: 10^−5 mol · l^−1
[1]; increase of fresh callus weight at the concentration with highest activity, 10^−5 M BAP = 100%
  Activity (%) [10^−5 mol · l^−1 BAP = 100%]: 36%
[2]
  GI50: > 167 µM
[3]; human fibroblasts passage 20 (HCA20)
  SENESCENT CELLS (%) HCA20: 5%
[3]; human fibroblasts passage 40 (HCA40)
  SENESCENT CELLS (%) HCA40: 5%
[3]; human fibroblasts passage 60 (HCA60)
  SENESCENT CELLS (%) HCA60: 16%
[4]; betacyanin content after 48 h incubation, tested 10^−8 M to 10^−4 M
  concentration with highest activity: 10^−4 mol · l^−1
[4]; betacyanin content at the concentration with highest activity, 10^−5 M BAP = 100%
  Activity (%) [10^−5 mol · l^−1 BAP = 100%]: 25.3%
β-adrenergic receptors
  Effect (modulation of the activity of β-adrenergic receptors): 1.8-fold fold activation
Human osteosarcoma HOS
  GI50: > 167 µM
[5]
  GI50: > 167 µM
[6]
  GI50: > 167 µM
Excised wheat leaf tips; retention of chlorophyll in excised wheat leaf tips at the concentration with highest activity, 10 replicate determinations
  activity (%) [10^−4 mol · l^−1 BAP = 100%]: 10.1%
Excised wheat leaf tips; retention of chlorophyll in excised wheat leaf tips, tested range 10^−8 M to 10^−4 M, 96 h in the dark at 25° C.
  concentration with highest activity: 10^−4 mol · l^−1
